Source: US11752140B2, “Compositions comprising substituted benzofuroquinolizine and psychoactive drug” (VETCARE OY, priority 2016, dated 2023)

Tests used:
dogs [1] = conditions: MK-467 250, 500, 750 μg/kg with dexmedetomidine 10 μg/kg IV (Restitutti 2011); cited from earlier work
[2] = Plasma concentrations of butorphanol and midazolam in dogs after IM administration of composition with or without MK-467; conditions: for Peak plasma concentration / Time at which peak plasma concentration was reached from the IM administration: IM
Method: Plasma Concentrations of Butorphanol and Midazolam in Dogs after IM Administration of a Composition Comprising MK-467, Butorphanol, Midazolam and Medetomidine, Compared with Composition without MK-467
A liquid aqueous composition comprising MK-467, butorphanol tartrate, midazolam and medetomidine was administered to a dog intramuscularly (IM) to provide a dosage of MK-467 500 μg/kg, butorphanol 100 μg/kg, midazolam 200 μg/kg and medetomidine 20 μg/kg.
Five purpose-bred, adult beagles were used for this study.
Study design: A prospective, randomized, experimental cross-over study.
Each dog was treated for two times with a 14-day wash-out period:
Treatment 1. medetomidine (20 μg/kg)+butorphanol (100 μg/kg)+midazolam (0.2 mg/kg)
Treatment 2. medetomidine (20 μg/kg)+MK-467 (MK) (500 μg/kg)+butorphanol (100 μg/kg)+midazolam (0.2 mg/kg).
For treatment 1. 1 mL of medetomidine (Dorbene 1 mg/mL) was diluted with 1 mL of saline. For treatment 2. 25 mg of MK-467 was mixed with 1 mL of medetomidine, and 1 mL of saline was added. The mixture, butorphanol (Torpudor 10 mg/mL) and midazolam (Midazolam Hameln 5 mg/mL) were aspirated into a single syringe. The end volume of the injectable in both treatments was 0.09 mL/kg.
Dog was positioned laterally and the drugs were injected IM into the epaxial muscle. Central venous blood was sampled into EDTA-tubes at 0, 3, 6, 10, 15, 20, 25, 30, 40, 50, 60 and 90 minutes after drug administration. The plasma concentrations were analyzed with LC/MS/MS for plasma concentrations of dexmedetomidine, midazolam and butorphanol.

dogs [3] = conditions: medetomidine 20 μg/kg IM or 10 μg/kg IV alone (Rolfe 2012); cited from earlier work
[4] = in the presence of MK-467 500 μg/kg, with medetomidine 20 μg/kg, butorphanol 100 μg/kg, midazolam 200 μg/kg in the same syringe
[5] = without MK-467, medetomidine, butorphanol, midazolam in the same syringe
[6] = parenteral extravascular administration, composition with MK-467

Structure (SMILES) | Effect on bispectral index (BIS) values (dogs [1]) | Peak plasma concentration [2, 4] [ng/mL] | Time at which peak plasma concentration was reached from the IM administration ([2]; with MK-467) [min] | Time at which peak plasma concentration was reached from the IM administration ([2]; without MK-467) [min] | Peak plasma concentration [2, 5] [ng/mL] | Time at which maximum plasma concentration was reached [2, 6] [min] | Time at which maximum plasma concentration was reached ([2]; without MK-467) [min] | Heart rate, Pvo(2) and cardiac index compared with baseline (dogs [3]) | MAP, SVR and oxygen extraction ratio compared with baseline (dogs [3])
Cc1cccc([C@H](C)c2cnc[nH]2)c1C [Dexmedetomidine, (S)-4-[1-(2,3-Dimethylphenyl)ethyl]-3H-imidazole] | decreased BIS-values |  |  |  |  |  |  |  | 
Oc1ccc2c(c1)[C@@]13CCCC[C@@]1(O)[C@@H](C2)N(CC1CCC1)CC3 [butorphanol] |  | 17 | ≤ 10 | ≤ 30 | 11 | 10 | 30 |  | 
Cc1ncc2n1-c1ccc(Cl)cc1C(c1ccccc1F)=NC2 [midazolam] |  | 133 | ≤ 5 | ≤ 30 | 71 | 5 | 20 |  | 
Cc1cccc(C(C)c2cnc[nH]2)c1C (racemic) [medetomidine, (RS)-4-[1-(2,3-dimethylphenyl)ethyl]-3H-imidazole] |  |  |  |  |  |  |  | significantly lower | significantly higher
